These are literature values, as cited in article PMC8287861 (Frontiers in Microbiology, 2021).

Series [1] relates to SHV-12. The note with it: SHV-12, class A; ref Tsivkovski et al. (2020).
Series [2] deals with β-lactamases.
Series [3] deals with VIM-1. More on the design: method as in Tsivkovski et al. (2020). The note with it: VIM-1, class B; ref Tsivkovski et al. (2020).
Series [4] deals with KPC-2.
For series [5], the system named is CTX-M-15. Also on record: method as in Tsivkovski et al. (2020). The note with it: CTX-M-15, class A; ref Tsivkovski et al. (2020).
Series [6] has as its system IMP-1. More on the design: method as in Tsivkovski et al. (2020). Particulars: class B, ref Tsivkovski et al. (2020).
Series [7] concerns IMP-26. Also on record: method as in Tsivkovski et al. (2020). The note with it: class B, ref Tsivkovski et al. (2020).
Series [8] relates to P99. Also on record: method as in Tsivkovski et al. (2020). The note with it: P99, class C; ref Tsivkovski et al. (2020).
Series [9] relates to isogenic strains of P. aeruginosa that produced KPC. More on the design: method as in Lomovskaya et al., 2020a. Particulars: ref Lomovskaya et al., 2020a; for PV50: potency to enhance biapenem activity.
The test system of series [10] is NDM-1. Also on record: method as in Tsivkovski et al. (2020). The note with it: class B, ref Tsivkovski et al. (2020).
Series [11] deals with CTX-M-14. More on the design: method as in Tsivkovski et al. (2020). The note with it: CTX-M-14, class A; ref Tsivkovski et al. (2020).
The test system of series [12] is KPC-2. Also on record: method as in Tsivkovski et al. (2020). The note with it: KPC-2, class A; ref Tsivkovski et al. (2020).
Series [13] deals with KPC-producing porin/efflux mutants of K. pneumoniae. The note with it: ref Lomovskaya et al.
Details of series [14]: method as in Hecker et al., 2020. The note with it: ref Hecker et al. (2020).
Series [15] relates to OXA-48. More on the design: method as in Tsivkovski et al. (2020). The note with it: OXA-48, class D; ref Tsivkovski et al. (2020).
The test system of series [16] is Acinetobacter baumannii mutants producing OXA-23. Also on record: method as in Lomovskaya et al., 2020a. The note with it: overexpression of efflux pumps; ref Lomovskaya et al., 2020a.
The target in series [17] is SHV-12. More on the design: method as in Tsivkovski et al. (2020). Particulars: ref Tsivkovski et al. (2020).
The target in series [18] is TEM-43. Also on record: method as in Tsivkovski et al. (2020). Particulars: ref Tsivkovski et al. (2020).
On the set-up of series [19]: method as in Hecker et al., 2020. The note with it: rats, doses of 30–100 mg/kg; ref Hecker et al., 2020.
The target of series [20] is KPC-3. More on the design: method as in Tsivkovski et al. (2020). Particulars: ref Tsivkovski et al. (2020).
For series [21], the target named is P99. Also on record: method as in Tsivkovski et al. (2020). Particulars: ref Tsivkovski et al. (2020).
Details of series [22]: method as in Sabet et al., 2020. Particulars: plasma QPX7728 exposure associated with 8 μg/ml; ref Sabet et al., 2020.
Series [23] deals with carbapenem resistant Acinetobacter baumannii. Particulars: in combination with meropenem; majority of the subsets of strains; ref Nelson et al., 2020b.
Series [24] has as its system OXA-23. More on the design: method as in Tsivkovski et al. (2020). The note with it: OXA-23, class D; ref Tsivkovski et al. (2020).
The subject of series [25] is ESBL and CRE producing strains of Enterobacterales. Also on record: method as in Nelson et al. (2020a; 2020b). The note with it: ref Nelson et al. (2020a; 2020b).
Series [26] has as its target VIM-1. More on the design: method as in Tsivkovski et al. (2020). The note with it: ref Tsivkovski et al. (2020).
In series [27] the target is FRI-1. More on the design: method as in Tsivkovski et al. (2020). The note with it: ref Tsivkovski et al. (2020).
Series [28] has as its target SME-2. Also on record: method as in Tsivkovski et al. (2020). Particulars: ref Tsivkovski et al. (2020).
Series [29] concerns the target OXA-24. Also on record: method as in Tsivkovski et al. (2020). Particulars: ref Tsivkovski et al. (2020).
Series [30] deals with CTX-M-15. More on the design: method as in Tsivkovski et al. (2020). Particulars: ref Tsivkovski et al. (2020).
For series [31], the target named is OXA-58. More on the design: method as in Tsivkovski et al. (2020). Particulars: ref Tsivkovski et al. (2020).
For series [32], the target named is OXA-23. More on the design: method as in Tsivkovski et al. (2020). The note with it: ref Tsivkovski et al. (2020).
In series [33] the target is OXA-48. More on the design: method as in Tsivkovski et al. (2020). The note with it: ref Tsivkovski et al. (2020).
In series [34] the target is IMP-1. More on the design: method as in Tsivkovski et al. (2020). The note with it: ref Tsivkovski et al. (2020).
In series [35] the test system is carbapenem-resistant strains of Enterobacterales (CRE). Also on record: method as in Nelson et al. (2020a). The note with it: with meropenem, ref Nelson et al. (2020a).
For series [36], the target named is BKC-1. Also on record: method as in Tsivkovski et al. (2020). Particulars: ref Tsivkovski et al. (2020).
The mark [37] stands for this setting: same mutations (OmpK35, OmpK36, increased efflux), 2017.
The mark [38] stands for this setting: inactivation of OmpK35 and OmpK36 and increased efflux, 2020a.

In brackets after ≈: the same amount, converted by molar mass. Like-named read-outs stand apart in the source and are kept apart here.
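For PV50 in this document: read from a curve of biapenem MIC plotted against inhibitor concentration.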

Take `O=C(O)C[C@@H]1CC[C@H](NC(=O)Cc2cccs2)B(O)O1` [Vaborbactam, vaborbactam]: the IC50 in series [1] was 56 ± 11 nM; in series [3], more than 160000 nM; in series [5], 92 ± 13 nM; in series [6] it was more than 160000 nM; in series [7], more than 160000 nM; in series [8], 88 ± 38 nM. In addition, the IC50 was more than 160000 nM in series [10], 110 ± 40 nM in [11] and 110 ± 30 nM in [12]. Further, in series [2] (fold less potent, ref Tsivkovski and Lomovskaya, 2019), the “potency against other class A or class C beta lactamases compared to KPC enzymes” value was 10–50 fold. Moreover, the residence time in series [4] (ref Tsivkovski and Lomovskaya, 2019) was approximately 6 h. The PV50 was 64 µg/mL in series [9] (PAM4126, mexR (MexAB-OprM)); 4 µg/mL in [9] (PAM4129, nfxB (MexCD-OprJ)); more than 64 µg/mL in series [9] (PAM4132, mexT (MexEF-OprM)); 8 µg/mL in series [9] (PAM4150, mexZ (MexXY-OprM)); 8 µg/mL in [9] (PAM4224, Wild-type); 0.5 µg/mL in series [9] (PAM4365, MexA::Tet). Also, the reduction in potency in series [9] (overproduction of the MexAB-OprM or the MexEF-OprN efflux pumps) is given as not below 8 fold. In addition, the “potency to completely inhibit KPC” value in series [13] (before porin/efflux mutations, 2017) was 0.25 µg/mL (≈ 0.841 µM); in [13] (setting [37]) it was 64 µg/mL (≈ 215 µM). Further, the “reduction of the potency” value in series [13] (setting [37]) is 256 fold.

With `COc1ccc2c(c1C(=O)O)OB(O)CC2` [RPX7610], in series [2] (ref Hecker et al. (2020)), the “effect of efflux and porin mutations” value was “minimally affected by efflux and porin mutations”; the “β-lactamase inhibition (in words)” value is reported as “potent inhibition of all target β-lactamases”. In series [14], the “metabolic stability (in words)” value was “metabolic liability”.

On to `NC(=O)[C@@H]1CC[C@@H]2CN1C(=O)N2OS(=O)(=O)O` [Avibactam, avibactam], for which the IC50 in [1] was 0.61 ± 0.19 nM; in [3] it was more than 160000 nM; in series [5], 0.56 ± 0.25 nM; in series [6] it was more than 160000 nM; in series [7] it was more than 160000 nM; in series [8] it was 26 ± 7 nM. In addition, the IC50 is more than 160000 nM in series [10], […] in [15], 1.4 ± 0.4 nM in series [11] and […] in series [12]. Moreover, in series [4] (ref Ehmann et al., 2013), the residence time was approximately 2 h.

For `O=C(O)c1c(F)ccc2c1OB(O)[C@@H]1C[C@H]21` [QPX7728], the IC50 in series [1] was 1.9 ± 0.6 nM; in series [3], 14 ± 4 nM; in [5], 1.2 ± 0.1 nM; in series [6], 610 ± 70 nM; in series [24] it was 1.2 ± 0.4 nM; in series [8], 22 ± 6 nM. In addition, the IC50 is 1.1 ± 0.4 nM in series [15], 0.94 ± 0.2 nM in [11] and 2.9 ± 0.4 nM in series [12]. For the same compound, the “effect of efflux on potency to inhibit β-lactamase” value in series [16] is recorded as “no effect of efflux on the potency”. Also, the equilibrium dissociation constant (Kd) in series [17] was 28 ± 4 nM; in series [18], 0.17 ± 0.02 nM; in [4] (ref Tsivkovski et al. (2020)) it was 0.25 ± 0.03 nM; in [20] it was 0.31 ± 0.06 nM; in [21], 0.53 ± 0.06 nM; in series [26] (VIM-1 (text b23 calls it Ki)), 7.5 ± 2.1 nM. Moreover, the Kd in [27] was 0.11 ± 0.01 nM; in series [28] it was 0.15 ± 0.02 nM; in series [29] it was 0.58 ± 0.1 nM; in [30], 0.11 ± 0.02 nM; in [31] it was 3.2 ± 0.3 nM; in series [32], 1.6 ± 0.2 nM. Also, the dissociation constant Kd in [33] is 0.13 ± 0.01 nM; in [34] (IMP-1 (text b23 calls it Ki)), 240 ± 30 nM; in [36] it was 0.06 ± 0.005 nM. Moreover, in series [19], the oral bioavailability was 43–53%. Besides, the “efficacy of plasma exposure” value in [22] is reported as “efficacious in animal models of infection”. Besides, the TPC90 result in [23] was “less than or equal to 8 μg/ml”; in series [25] (in combination with aztreonam at 8 μg/ml (FDA susceptible breakpoint)), 4 µg/mL; in series [25] (in combination with cefepime at 8 μg/ml (FDA susceptible breakpoint)), 4 µg/mL; in series [35] (598 CRE, breakpoint of 8 μg/ml) it was 4 µg/mL; in [35] (subsets with carbapenemase production and non-β-lactamase-mediated resistance mechanisms), 4 to 8 µg/mL. Besides, the inhibition constant Ki in series [26] (VIM-1, competitive inhibitor) was approximately 7 nM; in series [34] (IMP-1, competitive inhibitor), approximately 240 nM. The PV50 in series [9] (PAM4126, mexR (MexAB-OprM)) is 2 µg/mL; in series [9] (PAM4129, nfxB (MexCD-OprJ)) it was 0.5 µg/mL; in series [9] (PAM4132, mexT (MexEF-OprM)) it was 1 µg/mL; in [9] (PAM4150, mexZ (MexXY-OprM)), 1 µg/mL; in series [9] (PAM4224, Wild-type) it was 1 µg/mL; in series [9] (PAM4365, MexA::Tet), 1 µg/mL. In series [9] (mexAB-oprM efflux operon overexpressed), the reduction in potency entry was “No more than two-fold reduction in potency”. The “effect of inactivation of the carbapenem porin OprD on potency” value in series [9] was “did not have any effect”. Also, the “potency to completely inhibit KPC” value in series [13] (before porin/efflux mutations, 2020a) is 0.125 µg/mL (≈ 0.563 µM); in series [13] (setting [38]), 4 µg/mL (≈ 18 µM). Further, in series [13] (setting [38]), the “reduction of the potency to completely inhibit KPC” value is listed as “ca. 32 fold”.

As a reminder, the IC50 is the concentration at which inhibition is half-maximal. As a reminder, the Kd is the free concentration of one partner at which half of the binding sites on the other are occupied at equilibrium, for simple one-to-one binding. The Ki is a dissociation constant, usually derived from enzyme kinetics or from competition with a known ligand.
